Measured values from patent US20250367229A1, “Treatment of Immune-Related Disorders, Kidney Disorders, Liver Disorders, Hemolytic Disorders, and Oxidative Stress-Associated Disorders Using NRH, NARH and Reduced Derivatives Thereof” (MitoPower LLC, priority 2021, published 2025).

Assays:
CD8^+ T cells [1] = assay: Ex vivo polyclonal immune activation model: intracellular cytokine production in CD8+ T cells (flow cytometry); type: cell-based, human; conditions: 250 μM, 18 hours, PBMCs stimulated with anti-CD3 and anti-CD28 antibodies; p<0.05 Mann-Whitney U test
Experimental: (§1) Heparinized venous blood was collected from healthy human adult donors. Peripheral blood mononuclear cells (PBMCs) were isolated by Ficoll-Hypaque density-gradient centrifugation. PBMCs (1.0×10^6) were seeded in round-bottom, 96-well plates in 200 μL of medium, unstimulated or stimulated with an anti-CD3 antibody ([…], clone-HIT3a, Biolegend) plus an anti-CD28 antibody (1 μg/mL, clone-CD28.2, Biolegend) to induce T-cell activation, and incubated in cell-culture medium. The PBMCs were unstimulated or stimulated with anti-CD3 and anti-CD28 antibodies to induce T-cell activation, in the absence or presence of 250 μM NRH. After 18 hours of incubation, lymphocytes were analyzed for intracellular levels of IFN-γ, TNF-α and IL-2 by flow cytometry. Intracellular cytokine production was stopped by treating the cells with Golgi stop after 1 hr of treatment.

red blood cells (RBCs) = assay: H2O2-induced hemolysis in vitro; type: cell-based; conditions: 2000, 200 and 20 μM, pre-incubation 1 hr at 37° C., then H2O2 4 hr
Experimental: Individual test compounds were dissolved in 0.9% normal saline to prepare 0.3 M stock solutions. A 0.3 M stock solution was added to a 20% suspension of washed red blood cells (RBCs) in saline to obtain final concentrations of 2000 μM, 200 μM and 20 μM of the compound. The RBC suspensions were incubated with the test compound at 37° C. for 1 hr prior to testing. A 2.5% H2O2 solution was prepared fresh by dilution with normal saline and chilled at 2-8° C. before use. Each RBC suspension containing the test compound was split into tubes A and B. 250 μL of the chilled H2O2 solution was added to 250 μL of RBC suspension in each tube while maintaining the tubes in an ice bath. The tubes were incubated at 37° C. for 4 hr, and then 4.5 mL of saline or de-ionized water was added to tube A or tube B, respectively. After the tubes were incubated for 10 min, the mixture in the tubes was centrifuged at 1800 g, and then absorbance was measured in the supernatant at 540 nm. The percentage of hemolysis was calculated as: […]

CD4^+ T cells [2] = assay: Cell death including apoptosis (annexin V, flow cytometry) of CD4+ T cells with depolarized mitochondria; type: cell-based, human; conditions: 250 μM, 24 hr, unstimulated or stimulated with anti-CD3 and anti-CD28 antibodies
Experimental: (§2) PBMCs (10^6 cells per test group) obtained from healthy human adult donors were unstimulated or stimulated with anti-CD3 and anti-CD28 antibodies to induce T-cell activation, in the absence or presence of 250 μM of NRH or NRH-triacetate (NRHTA). Measurements were made at 5, 15 and 24 hr after treatment.
(§3) After the indicated time of incubation, the PBMCs were stained with anti-CD3, anti-CD4 and anti-CD8 antibodies (Biolegend), JC-1 (1 μM, Thermo Fisher) and annexin V (Thermo Fisher) prior to analysis by flow cytometry. Annexin V binds to cell-surface phosphatidylserine, which is a marker for different forms of cell death including apoptosis and necrosis. The stained cells were re-suspended in phosphate-buffered saline (PBS) and acquired in a Cytek Aurora flow cytometer using a FlowJo software (v10) for analysis. About 200,000-300,000 cells were acquired in the flow cytometer for analysis. Standard procedures for spectral compensation were performed to obtain cell populations. Lymphocytes identified by forward and side scatter were gated to obtain CD3^+/CD4^+ and CD3^+/CD8^+ T-cell populations. Those T-cell populations were gated to identify the red and green signals for JC-1 aggregate and monomer, respectively, and annexin V. The percentage of cells staining green by JC-1 monomer was used to determine the percentage of cells with depolarized mitochondria. […]

CD4^+ T cells [3] = assay: Mitochondrial membrane depolarization (JC-1, flow cytometry) in CD4+ T cells; type: cell-based, human; conditions: 250 μM, 24 hr, unstimulated or stimulated with anti-CD3 and anti-CD28 antibodies
Experimental: as §2, §3

CD8^+ T cells [4] = assay: Cell death including apoptosis (annexin V, flow cytometry) of CD8+ T cells with depolarized mitochondria; type: cell-based, human; conditions: 250 μM, 24 hr, unstimulated or stimulated with anti-CD3 and anti-CD28 antibodies
Experimental: as §2, §3

CD4^+ T cells [5] = assay: Ex vivo polyclonal immune activation model: cytokine production in CD4+ T cells; type: cell-based, human; conditions: stimulated with anti-CD3 and anti-CD28 antibodies; data not shown
Experimental: as §1

[6] = test system: peripheral blood mononuclear cells (PBMCs); assay: Extracellular acidification rate (ECAR, a measure of glycolysis) in activated PBMCs, Seahorse XF; type: cell-based, human; conditions: 250 μM, 4 hr, PBMCs stimulated with anti-CD3 and anti-CD28 antibodies
Experimental: PBMCs (1.5×10^6) obtained from a healthy human adult donor were unstimulated or stimulated with anti-CD3 and anti-CD28 antibodies (1 μg/mL each) to induce T-cell activation, in the absence or presence of 250 μM NRH for 4 hr. The cells were then washed and plated on poly-D-lysine-coated Seahorse XF microplates at a density of 3×10^5 cells per well (5 replicates). The plates were centrifuged briefly and incubated at 37° C. in a non-CO2 incubator for 30 min to settle the cells in the bottom of the plate. Extracellular acidification rate (ECAR, a measure of glycolysis) and oxygen consumption rate (OCR, a measure of oxidative phosphorylation) were determined using a Seahorse XF cell mito stress test kit and a Seahorse Xfe96 analyzer (Agilent Technologies, Santa Clara, California) under basal condition or in response to 1.0 μM oligomycin (an inhibitor of ATP synthase), 1.5 μM carbonyl cyanide-p-trifluoromethoxyphenylhydrazone (FCCP, a mitochondrial uncoupler), 0.5 μM rotenone (an inhibitor of electron transport at complex I) and antimycin A (an inhibitor of electron transport at cytochrome c reductase). PBMCs include monocytes and lymphocytes including T cells, B cells and natural killer cells.

NC(=O)C1=CN([C@@H]2O[C@H](CO)[C@@H](O)[C@H]2O)C=CC1 [NRH, N-(β-D-ribofuranosyl)dihydronicotinamide]
production of IFN-γ in activated CD8+ T cells (CD8^+ T cells [1]): significantly reduced | production of IL-2 in activated CD8+ T cells (CD8^+ T cells [1]): significantly reduced | production of TNF-α in activated CD8+ T cells (CD8^+ T cells [1]): significantly reduced | H2O2-induced hemolysis (red blood cells (RBCs)): reduced H2O2-induced hemolysis | cell death including apoptosis of CD4+ T cells with depolarized mitochondria (CD4^+ T cells [2]): reduced cell death | mitochondrial membrane depolarization in CD4+ T cells (CD4^+ T cells [3]): significantly induced | cell death including apoptosis of CD8+ T cells with depolarized mitochondria (CD8^+ T cells [4]): reduced cell death | production of pro-inflammatory cytokines (e.g., TNF-α, IL-2, IFN-γ) by CD4+ T cells (CD4^+ T cells [5]): reduced production of pro-inflammatory cytokines | extracellular acidification rate (ECAR, a measure of glycolysis) in activated PBMCs [6]: significantly reduced
